Test results reported in patent publication US6737383B1, “Herbicidal oxadiazolidines” (priority 1999, dated 2004).

Key:
giant foxtail = experiment: Test B pre/postemergence giant foxtail; type: in vivo, Setaria faberii
In short: (§1)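 Response is a visual 0-to-10 score relative to untreated plants, where 0 means no effect and 10 means complete control, taken twelve to sixteen days after application. Treatments went onto soil at planting and onto foliage of 1- to 4-leaf plants, using a surfactant-containing non-phytotoxic solvent.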

wheat = experiment: Test B pre/postemergence wheat; type: in vivo, Triticum aestivum
In short: as §1

pigweed = experiment: Test B pre/postemergence pigweed; type: in vivo, Amaranthus retroflexus
In short: as §1

surinam grass = experiment: Test B pre/postemergence surinam grass; type: in vivo, Brachiaria decumbens
In short: as §1

corn = experiment: Test B pre/postemergence corn; type: in vivo, Zea mays
In short: as §1

wild oat = experiment: Test B pre/postemergence wild oat; type: in vivo, Avena fatua
In short: as §1

velvetleaf = experiment: Test B pre/postemergence velvetleaf; type: in vivo, Abutilon theophrasti
In short: as §1

bedstraw = experiment: Test B pre/postemergence bedstraw; type: in vivo, Galium aparine
In short: as §1

morningglory = experiment: Test B pre/postemergence morningglory; type: in vivo, Ipomoea hederacea
In short: as §1

cocklebur = experiment: Test B pre/postemergence cocklebur; type: in vivo, Xanthium strumarium
In short: as §1

rape = experiment: Test B pre/postemergence rape; type: in vivo, Brassica napus
In short: as §1

blackgrass = experiment: Test B pre/postemergence blackgrass; type: in vivo, Alopecurus myosuroides
In short: as §1

crabgrass = experiment: Test B pre/postemergence crabgrass; type: in vivo, Digitaria sanguinalis
In short: as §1

purple nutsedge = experiment: Test B pre/postemergence purple nutsedge; type: in vivo, Cyperus rotundus
In short: as §1

soybean = experiment: Test B pre/postemergence soybean; type: in vivo, Glycine max
In short: as §1

sugar beet = experiment: Test B pre/postemergence sugar beet; type: in vivo, Beta vulgaris
In short: as §1

[1] = Postemergence, Rate 62 g/ha, scale 0 to 10, 0 is no effect, 10 is complete control
[2] = Postemergence, Rate 125 g/ha, scale of 0 to 10 where 0 is no effect and 10 is complete control
[3] = Preemergence, Rate 125 g/ha, scale of 0 to 10 where 0 is no effect and 10 is complete control
[4] = Preemergence, Rate 250 g/ha, scale 0 (no effect) to 10 (complete control)
[5] = Rate 62 g/ha, Preemergence, scale 0 to 10
[6] = Rate 250 g/ha, Postemergence, scale 0 to 10, 0 is no effect, 10 is complete control
[7] = Rate 500 g/ha, Postemergence, scale 0 to 10, 0 is no effect, 10 is complete control
[8] = Rate 500 g/ha, Preemergence, scale 0 to 10 (0 no effect, 10 complete control)

SMILES: CC(C)N(C(=O)n1oc(=O)n(CCCCl)c1=O)c1ccccc1 [Compound 750]
- Plant response rating, Giant foxtail (giant foxtail; [1]): 9
- Giant foxtail plant response rating (giant foxtail; [2]): 8
- Plant response rating, Giant foxtail (giant foxtail; [3]): 10
- Giant foxtail plant response rating (giant foxtail; [4]): 10
- Giant foxtail plant response rating (giant foxtail; [5]): 9
- Giant foxtail plant response rating (giant foxtail; [6]): 8
- Giant foxtail plant response rating (giant foxtail; [7]): 8
- Giant foxtail plant response rating (giant foxtail; [8]): 10
- Plant response rating, Wheat (wheat; [1]): 0
- Wheat plant response rating (wheat; [2]): 0
- Plant response rating, Wheat (wheat; [3]): 4
- Wheat plant response rating (wheat; [4]): 5
- Wheat plant response rating (wheat; [5]): 2
- Wheat plant response rating (wheat; [6]): 2
- Wheat plant response rating (wheat; [7]): 2
- Plant response rating, Redroot pigweed (pigweed; [1]): 4
- Redroot pigweed plant response rating (pigweed; [2]): 7
- Plant response rating, Redroot pigweed (pigweed; [3]): 9
- Redroot pigweed plant response rating (pigweed; [4]): 10
- Redroot pigweed plant response rating (pigweed; [5]): 7
- Redroot pigweed plant response rating (pigweed; [6]): 7
- Redroot pigweed plant response rating (pigweed; [7]): 7
- Plant response rating, B. signalgrass (surinam grass; [1]): 0
- B. signalgrass plant response rating (surinam grass; [2]): 2
- B. signalgrass plant response rating (surinam grass; Preemergence, Rate 62 g/ha, scale of 0 to 10 where 0 is no effect and 10 is complete control): 5
- Plant response rating, B. signalgrass (surinam grass; [3]): 10
- B. signalgrass plant response rating (surinam grass; [4]): 8
- B. signalgrass plant response rating (surinam grass; [6]): 6
- B. signalgrass plant response rating (surinam grass; [7]): 6
- Plant response rating, Corn (corn; [1]): 0
- Corn plant response rating (corn; [2]): 0
- Plant response rating, Corn (corn; [3]): 3
- Corn plant response rating (corn; [5]): 0
- Corn plant response rating (corn; [6]): 0
- Corn plant response rating (corn; [7]): 5
- Corn plant response rating (corn; [8]): 6
- Plant response rating, Wild oats (wild oat; [1]): 0
- Wild oats plant response rating (wild oat; [2]): 0
- Plant response rating, Wild oats (wild oat; [3]): 5
- Wild oats plant response rating (wild oat; [4]): 7
- Wild oats plant response rating (wild oat; [5]): 0
- Wild oats plant response rating (wild oat; [6]): 0
- Wild oats plant response rating (wild oat; [7]): 0
- Plant response rating, Velvetleaf (velvetleaf; [1]): 0
- Velvetleaf plant response rating (velvetleaf; [2]): 3
- Plant response rating, Velvetleaf (velvetleaf; [3]): 0
- Velvetleaf plant response rating (velvetleaf; [4]): 7
- Velvetleaf plant response rating (velvetleaf; [5]): 0
- Velvetleaf plant response rating (velvetleaf; [6]): 5
- Velvetleaf plant response rating (velvetleaf; [7]): 6
- Velvetleaf plant response rating (velvetleaf; [8]): 7
- Plant response rating, Bedstraw (bedstraw; [1]): 5
- Plant response rating, Bedstraw (bedstraw; [3]): 0
- Bedstraw plant response rating (bedstraw; [4]): 0
- Bedstraw plant response rating (bedstraw; [5]): 0
- Bedstraw plant response rating (bedstraw; [6]): 7
- Bedstraw plant response rating (bedstraw; [7]): 10
- Plant response rating, Morningglory (morningglory; [1]): 3
- Morningglory plant response rating (morningglory; [2]): 3
- Plant response rating, Morningglory (morningglory; [3]): 0
- Morningglory plant response rating (morningglory; [4]): 6
- Morningglory plant response rating (morningglory; [5]): 0
- Morningglory plant response rating (morningglory; [6]): 8
- Morningglory plant response rating (morningglory; [7]): 10
- Morningglory plant response rating (morningglory; [8]): 6
- Plant response rating, Cocklebur (cocklebur; [1]): 0
- Cocklebur plant response rating (cocklebur; [2]): 0
- Plant response rating, Cocklebur (cocklebur; [3]): 0
- Cocklebur plant response rating (cocklebur; [4]): 0
- Cocklebur plant response rating (cocklebur; [5]): 0
- Cocklebur plant response rating (cocklebur; [6]): 1
- Cocklebur plant response rating (cocklebur; [7]): 3
- Cocklebur plant response rating (cocklebur; [8]): 0
- Plant response rating, Rape (rape; [1]): 0
- Rape plant response rating (rape; [2]): 4
- Plant response rating, Rape (rape; [3]): 0
- Rape plant response rating (rape; [4]): 8
- Rape plant response rating (rape; [5]): 0
- Rape plant response rating (rape; [6]): 6
- Rape plant response rating (rape; [7]): 7
- Plant response rating, Blackgrass (blackgrass; [1]): 4
- Blackgrass plant response rating (blackgrass; [2]): 7
- Plant response rating, Blackgrass (blackgrass; [3]): 8
- Blackgrass plant response rating (blackgrass; [4]): 8
- Blackgrass plant response rating (blackgrass; [5]): 7
- Blackgrass plant response rating (blackgrass; [6]): 7
- Blackgrass plant response rating (blackgrass; [7]): 8
- Plant response rating, Crabgrass (crabgrass; [1]): 7
- Crabgrass plant response rating (crabgrass; [2]): 9
- Plant response rating, Crabgrass (crabgrass; [3]): 9
- Crabgrass plant response rating (crabgrass; [4]): 9
- Crabgrass plant response rating (crabgrass; [5]): 9
- Crabgrass plant response rating (crabgrass; [6]): 9
- Crabgrass plant response rating (crabgrass; [8]): 10
- Plant response rating, Nutsedge (purple nutsedge; [1]): 0
- Nutsedge plant response rating (purple nutsedge; [2]): 0
- Plant response rating, Nutsedge (purple nutsedge; [3]): 0
- Nutsedge plant response rating (purple nutsedge; [4]): 7
- Nutsedge plant response rating (purple nutsedge; [5]): 0
- Nutsedge plant response rating (purple nutsedge; [6]): 7
- Nutsedge plant response rating (purple nutsedge; [8]): 9
- Plant response rating, Soybean (soybean; [1]): 2
- Soybean plant response rating (soybean; [2]): 6
- Plant response rating, Soybean (soybean; [3]): 0
- Soybean plant response rating (soybean; [4]): 5
- Soybean plant response rating (soybean; [5]): 0
- Soybean plant response rating (soybean; [6]): 7
- Soybean plant response rating (soybean; [7]): 7
- Soybean plant response rating (soybean; [8]): 5
- Plant response rating, Sugarbeets (sugar beet; [1]): 0
- Sugarbeets plant response rating (sugar beet; [2]): 3
- Plant response rating, Sugarbeets (sugar beet; [3]): 3
- Sugarbeets plant response rating (sugar beet; [4]): 5
- Sugarbeets plant response rating (sugar beet; [5]): 1
- Sugarbeets plant response rating (sugar beet; [6]): 3
- Sugarbeets plant response rating (sugar beet; [7]): 6
